# How the values were obtained:
# [1] = tested on: oligo-2: d(CGATGTACATCG)2; assay: Fluorescence titration; format: binding; conditions: 20 °C, pH 7.2
# [2] = tested on: oligo-1: d(CGCGAATTCGCG)2; assay: Fluorescence titration; format: binding; conditions: 20 °C, pH 7.2
# [3] = Behaviour of HCl salt in cell culture media; format: physicochemical
Compound,Ka binding affinity with oligo-2 [1],Ka binding affinity with oligo-1 [2],behaviour of HCl salt in cell culture media [3]
"CCOc1ccc(-c2nc3cc(-c4nc5cc(N6CCN(C)CC6)ccc5[nH]4)ccc3[nH]2)cc1OCC [10a, 2-(2-(3,4-Diethoxyphenyl)-1H-benzo[d]imidazol-5-yl)-5-(4-methylpiperazin-1-yl)-1H-benzo[d]imidazole]",2 × 10^6 M^1,7 × 10^6 M^–1,–
"COc1ccc(OC)c(-c2nc3ccc(-c4nc5ccc(N6CCN(C)CC6)cc5[nH]4)cc3[nH]2)c1 [10c, 2′-(2,5-Dimethoxyphenyl)-6-(4-methylpiperazin-1-yl)-1H,3′H-2,5′-bibenzo[d]imidazole]",2 × 10^6 M^1,8 × 10^6 M^–1,–
"CN1CCN(c2ccc3[nH]c(-c4ccc5[nH]c(-c6ccc(C(F)(F)F)cc6)nc5c4)nc3c2)CC1 [10b, 5-(4-Methylpiperazin-1-yl)-2′-(4-(trifluoromethyl)phenyl)-1H,1′H-2,5′-Bibenzo[d]imidazole]",3 × 10^6 M^1,7 × 10^6 M^–1,–
"CCCN1CCN(c2ccc3[nH]c(-c4ccc5[nH]c(-c6cc(OC)c(OC)c(OC)c6)nc5c4)nc3c2)CC1 [11d, 5-(4-Propylpiperazin-1-yl)-2′-(3,4,5-trimethoxyphenyl)-1H,1′H-2,5′-bibenzo[d]imidazole]",1 × 10^6 M^1,–,–
"CCCN1CCN(c2ccc3[nH]c(-c4ccc5[nH]c(-c6ccc(C(F)(F)F)cc6)nc5c4)nc3c2)CC1 [11b, 2-(4-(Trifluoromethyl)phenyl)-5-(5-(4-propylpiperazin-1-yl)-1H-benzo[d]imidazol-2-yl)-1H-benzo[d]imidazole]",2 × 10^6 M^1,7 × 10^6 M^–1,–
"CCCN1CCN(c2ccc3nc(-c4ccc5nc(-c6cc(OC)ccc6OC)[nH]c5c4)[nH]c3c2)CC1 [11c, 2′-(2,5-Dimethoxyphenyl)-6-(4-propylpiperazin-1-yl)-1H,3′H-2,5′-bibenzo[d]imidazole]",3 × 10^6 M^1,7 × 10^6 M^–1,–

# Further lines, results first:
Ka binding affinity with oligo-2 [1],Ka binding affinity with oligo-1 [2],behaviour of HCl salt in cell culture media [3],Compound
2 × 10^6 M^1,9 × 10^6 M^–1,precipitating in cell culture media,"CCOc1ccc(-c2nc3ccc(-c4nc5ccc(N6CCN(CCN(C)C)CC6)cc5[nH]4)cc3[nH]2)cc1OCC [13a, 2-(4-(2′-(3,4-Diethoxyphenyl)-1H,3′H-[2,5′-bibenzo[d]imidazol]-6-yl)piperazin-1-yl)N,N-dimethylethan-1-amine]"
2 × 10^6 M^1,–,–,"CCCCN1CCN(c2ccc3nc(-c4ccc5nc(-c6cc(OC)ccc6OC)[nH]c5c4)[nH]c3c2)CC1 [12c, 6-(4-Butylpiperazin-1-yl)-2′-(2,5-dimethoxyphenyl)-1H,3′H-2,5′-bibenzo[d]imidazole]"
4 × 10^6 M^1,–,–,"CCCCN1CCN(c2ccc3[nH]c(-c4ccc5[nH]c(-c6cc(OC)c(OC)c(OC)c6)nc5c4)nc3c2)CC1 [12d, 5-(4-Butylpiperazin-1-yl)-2-(2-(3,4,5-trimethoxyphenyl)-1H-benzo[d]imidazol-5-yl)-1H-benzo[d]imidazole]"
1 × 10^6 M^1,5 × 10^6 M^–1,precipitating in cell culture media,"COc1cc(-c2nc3ccc(-c4nc5ccc(N6CCN(CCN(C)C)CC6)cc5[nH]4)cc3[nH]2)cc(OC)c1OC [13d, 2-(4-(2′-(3,4,5-Trimethoxyphenyl)-1H,3′H-[2,5′-bibenzo[d]imidazol]-6-yl)piperazin-1-yl) N,N-Dimethylethan-1-amine]"
3 × 10^6 M^1,1 × 10^7 M^–1,–,"CCCCN1CCN(c2ccc3[nH]c(-c4ccc5[nH]c(-c6ccc(OCC)cc6)nc5c4)nc3c2)CC1 [12e, 5-(4-Butylpiperazin-1-yl)-2′-(4-ethoxyphenyl)-1H,1′H-2,5′-bibenzo[d]imidazole]"
5 × 10^6 M^1,2 × 10^7 M^–1,–,"CCOc1ccc(-c2nc3ccc(-c4nc5ccc(N6CCN(C)CC6)cc5[nH]4)cc3[nH]2)cc1 [Hoechst 33342, reference compound]"
1 × 10^6 M^1,5 × 10^6 M^–1,precipitating in cell culture media,"COc1ccc(OC)c(-c2nc3ccc(-c4nc5ccc(N6CCN(CCN(C)C)CC6)cc5[nH]4)cc3[nH]2)c1 [13c, 2-(4-(2′-(2,5-Dimethoxyphenyl)-1H,3′H-[2,5′-bibenzo[d]imidazol]-6-yl)piperazin-1-yl)-N,N-dimethylethan-1-amine]"
